Legend:
Assay type in all cases: cell-based, human
[1] = tested on: hepatocellular carcinoma (HepG2) cells; assay: Antiproliferative MTT assay, HepG2; details: for IC50: Homo sapiens, HepG2, 72 h, 72 h incubation, MTT, mean ± SD; for SI (HepG2): SI = [IC50 HFF]/[IC50 HepG2]
Procedure: (§1) The human ATCC tumor cell lines breast adenocarcinoma (MCF7), colorectal carcinoma (HT-29), pancreatic ductal adenocarcinoma (CFPAC-1), hepatocellular carcinoma (HepG2), and normal skin fibroblasts (HFF) derived from ATCC (American Type Culture Collection) were cultured in Dulbecco’s Modified Eagle Medium (DMEM) or Minimum Essential Medium (MEM) supplemented with 10% fetal bovine serum (FBS), 2 mM L-glutamine, 100 U/mL penicillin, and 100 µg/mL streptomycin (Lonza, Basel, Switzerland) in a humidified atmosphere with 5% CO2 at 37 °C. For the experiment, carcinoma cell lines and normal human cell lines were seeded in 96-well microtiter plates at a density of 3000 cells per well and 5000 cells per well, respectively, depending on the doubling time of the specific cell line. The test substances were then added at fivefold, tenfold dilutions (0.01 to 100 µM), freshly prepared in the growth medium on the day of testing, and incubated for a further 72 h. After 72 h of incubation, the growth rate of the cells was determined using the MTT assay according to the manufacturer’s guidelines. […] The IC50 values were calculated from the dose–response curves using linear regression analysis. The experiment was performed in tetraplicates in two individual experiments.
(§2) Newly synthesized compounds were evaluated for their cytotoxic activity in vitro against four human cancer cell lines, including human breast adenocarcinoma (MCF-7), ductal pancreatic adenocarcinoma (CFPAC-1), colorectal carcinoma (HT-29), and hepatocellular carcinoma (HepG2), as well as on non-cancerous skin fibroblasts (HFF-1), to check for non-specific toxicity. Furthermore, 5-Fluorouracil (5-FU) was used as a reference drug. The results are expressed as 50% inhibitory concentration (IC50) values and are listed in Table 2, Table 3, Table 4 and Table 5.

[2] = tested on: normal skin fibroblasts (HFF-1); assay: Cytotoxicity MTT assay, normal skin fibroblasts; details: Homo sapiens, HFF-1, 72 h, 72 h incubation, mean ± SD
Procedure: as §1, §2

[3] = tested on: pancreatic ductal adenocarcinoma (CFPAC-1) cells; assay: Antiproliferative MTT assay, CFPAC-1; details: for IC50: Homo sapiens, CFPAC-1, 72 h, 72 h incubation, MTT, mean ± SD; for SI (CFPAC-1): SI = [IC50 HFF]/[IC50 CFPAC-1]
Procedure: as §1, §2

[4] = tested on: colorectal carcinoma (HT-29) cells; assay: Antiproliferative MTT assay, HT-29; details: for IC50: Homo sapiens, HT-29, 72 h, 72 h incubation, MTT, mean ± SD; for SI (HT-29): SI = [IC50 HFF]/[IC50 HT-29]
Procedure: as §1, §2

[5] = tested on: breast adenocarcinoma (MCF7) cells; assay: Antiproliferative MTT assay, MCF-7; details: for IC50: Homo sapiens, MCF7, 72 h incubation, MTT, mean ± SD; for SI (MCF-7): SI = [IC50 HFF]/[IC50 MCF-7]
Procedure: as §1, §2

Structure (SMILES): OC(Cn1cc(Cn2cnc3c(Cl)ncnc32)nn1)c1ccc(F)cc1 (stereo not shown) [Compound 37b, 6-Chloro-9-((1-(2-hydroxy-2-(4-fluorophenyl)ethyl)-1H-1,2,3-triazol-4-yl)methyl)-9H-purine]
- IC50 [1]: 54 ± 6 µM
- SI (HepG2) [1]: 1.1
- IC50 [2]: 59 ± 9.2 µM
- IC50 [3]: 56 ± 5.5 µM
- IC50 [4]: 46 ± 9.9 µM
- SI (HT-29) [4]: 1.3
- IC50 [5]: 49 ± 9.9 µM

Structure (SMILES): OCC(c1ccc(F)cc1)n1cc(Cn2ccc3ccccc32)nn1 (stereo not shown) [Compound 27a, 1-((1-(2-Hydroxy-1-(4-fluorophenyl)ethyl)-1H-1,2,3-triazol-4-yl)methyl)-1H-indole]
- IC50 [1]: 49 ± 2.5 µM
- IC50 [2]: 42 ± 10.5 µM
- IC50 [3]: 68 ± 12.7 µM
- SI (CFPAC-1) [3]: 0.6
- IC50 [4]: 47 ± 16.9 µM
- IC50 [5]: 51 ± 6.7 µM

Structure (SMILES): OCC(c1ccc(F)cc1)n1cc(Cn2ccc3c(Cl)ncnc32)nn1 (stereo not shown) [Compound 42a, 4-Chloro-7-((1-(2-hydroxy-1-(4-fluorophenyl)ethyl)-1H-1,2,3-triazol-4-yl)methyl)-7H-pyrrolo[2,3-d]pyrimidine]
- IC50 [1]: 47 ± 13.5 µM
- IC50 [2]: 51 ± 16.5 µM
- IC50 [3]: 36 ± 2.2 µM
- SI (CFPAC-1) [3]: 1.4
- IC50 [4]: 39 ± 1.9 µM
- IC50 [5]: 39 ± 16.9 µM
- SI (MCF-7) [5]: 1.3

Structure (SMILES): OCC(c1ccc(Cl)cc1)n1cc(Cn2cnc3c(Cl)ncnc32)nn1 (stereo not shown) [Compound 38a, 6-Chloro-9-((1-(2-hydroxy-1-(4-chlorophenyl)ethyl)-1H-1,2,3-triazol-4-yl)methyl)-9H-purine]
- IC50 [1]: 34 ± 4.2 µM
- SI (HepG2) [1]: 1.2
- IC50 [2]: 41 ± 16.3 µM
- IC50 [3]: 48 ± 4.9 µM
- IC50 [4]: 33 ± 6.06 µM
- SI (HT-29) [4]: 1.2
- IC50 [5]: 24 ± 8.8 µM

Structure (SMILES): O[C@@H](Cn1cc(Cn2cnc3c(Cl)ncnc32)nn1)c1ccccc1 [Compound (R)-36b, (R)-6-Chloro-9-((1-(2-hydroxy-2-phenylethyl)-1H-1,2,3-triazol-4-yl)methyl)-9H-purine]
- IC50 [1]: 57 ± 9.7 µM
- SI (HepG2) [1]: >1.8
- IC50 [2]: > 100 µM
- IC50 [3]: 66 ± 3.2 µM
- IC50 [4]: 86 ± 11.6 µM
- SI (HT-29) [4]: >1.2
- IC50 [5]: 61 ± 3.7 µM

Structure (SMILES): OCC(c1ccc(F)cc1)n1cc(Cn2cnc3c(Cl)nccc32)nn1 (stereo not shown) [Compound 47a, 4-Chloro-1-((1-(2-hydroxy-1-(4-fluorophenyl)ethyl)-1H-1,2,3-triazol-4-yl)methyl)-1H-imidazo[4,5-c]pyridine]
- IC50 [1]: > 100 µM
- IC50 [2]: 75 ± 14.2 µM
- IC50 [3]: 51 ± 6.5 µM
- IC50 [4]: > 100 µM
- IC50 [5]: 63 ± 8.4 µM

Structure (SMILES): OCC(c1ccc(F)cc1)n1cc(Cn2cnc3ccccc32)nn1 (stereo not shown) [Compound 32a, 1-((1-(2-Hydroxy-1-(4-fluorophenyl)ethyl)-1H-1,2,3-triazol-4-yl)methyl)-1H-benzimidazole]
- IC50 [1]: 74 ± 0.6 µM
- IC50 [2]: > 100 µM
- IC50 [3]: > 100 µM
- IC50 [4]: > 100 µM
- IC50 [5]: 98 ± 2.8 µM

Structure (SMILES): O[C@@H](Cn1cc(Cn2cnc3c(Cl)ncnc32)nn1)c1ccc(F)cc1 [Compound (R)-37b, (R)-6-Chloro-9-((1-(2-hydroxy-2-(4-fluorophenyl)ethyl)-1H-1,2,3-triazol-4-yl)methyl)-9H-purine]
- IC50 [1]: 64 ± 3.1 µM
- SI (HepG2) [1]: 0.6
- IC50 [2]: 35 ± 5.5 µM
- IC50 [3]: > 100 µM
- IC50 [4]: > 100 µM
- IC50 [5]: > 100 µM

Structure (SMILES): O[C@@H](Cn1cc(Cn2cnc3c(Cl)ncnc32)nn1)c1ccc(Cl)cc1 [Compound (R)-38b]
- IC50 [1]: 39 ± 10.5 µM
- SI (HepG2) [1]: 0.8
- IC50 [2]: 31 ± 13.4 µM
- IC50 [3]: 60 ± 10.3 µM
- IC50 [4]: 51 ± 17.8 µM
- SI (HT-29) [4]: 0.6
- IC50 [5]: 64 ± 4.8 µM

Structure (SMILES): O[C@H](Cn1cc(Cn2ccc3c(Cl)ncnc32)nn1)c1ccc(Cl)cc1 [Compound (S)-43b, (S)-4-Chloro-7-((1-(2-hydroxy-2-(4-chlorophenyl)ethyl)-1H-1,2,3-triazol-4-yl)methyl)-7H-pyrrolo[2,3-d]pyrimidine]
- IC50 [1]: 21 ± 0.8 µM
- IC50 [2]: 41 ± 1.1 µM
- IC50 [3]: 31 ± 5.3 µM
- SI (CFPAC-1) [3]: 1.3
- IC50 [4]: 33 ± 7.8 µM
- IC50 [5]: 33 ± 5.8 µM
- SI (MCF-7) [5]: 1.2
